Reference: US10167262B2, “Herbicidal substituted 3-arylpyrazoles” (FMC CORPORATION, priority 2014, dated 2019)

How the values were obtained:
Assay in all cases: Test D postemergence controlled growth environment test, plant response rating 0-100
Type in all cases: in vivo
[1] = system: deadnettle (henbit deadnettle, Lamium amplexicaule)
Excerpt: (§1) Seeds of plant species selected from bluegrass (annual bluegrass, Poa annua), blackgrass (Alopecurus myosuroides), canarygrass (Phalaris minor), chickweed (common chickweed, Stellaria media), galium (catchweed bedstraw, Galium aparine), downy bromegrass (Bromus tectorum), field violet (Viola arvensis), green foxtail (Setaria viridis), deadnettle (henbit deadnettle, Lamium amplexicaule), Italian ryegrass (Lolium multiflorum), kochia (Kochia scoparia), lambsquarters (Chenopodium album), oilseed rape (Brassica napus), pigweed (Amaranthus retroflexus), Russian thistle (Salsola kali), spring barley (Hordeum vulgare), spring wheat (Triticum aestivum), wild buckwheat (Polygonum convolvulus), wild mustard (Sinapis arvensis), wild oat (Avena fatua), windgrass (Apera spica-venti), winter barley (Hordeum vulgare), and winter wheat (Triticum aestivum) were planted in pots containing Redi-Earth® planting medium (Scotts Company, 14111 Scottslawn Road, Marysville, Ohio 43041) comprising spaghnum peat moss, vermiculite, wetting agent and starter nutrients and treated with postemergence applications of test chemicals formulated in a non-phytotoxic solvent mixture which included a surfactant. Plants ranged in height from 2 to 18 cm (1- to 4-leaf stage). Treated plants and controls were maintained in a controlled growth environment for 14 days after which time all species were compared to controls and visually evaluated. Plant response ratings, summarized in Table D, are based on a scale of 0 to 100 where 0 is no effect and 100 is complete control. A dash (-) response means no test result.

[2] = system: chickweed (common chickweed, Stellaria media)
Excerpt: as §1

[3] = system: blackgrass (Alopecurus myosuroides)
Excerpt: as §1

[4] = system: wild mustard (Sinapis arvensis)
Excerpt: as §1

[5] = system: spring barley (Hordeum vulgare)
Excerpt: as §1

[6] = system: field violet (Viola arvensis)
Excerpt: as §1

[7] = system: windgrass (Apera spica-venti)
Excerpt: as §1

[8] = system: spring wheat (Triticum aestivum)
Excerpt: as §1

[9] = system: canarygrass (Phalaris minor)
Excerpt: as §1

[10] = system: oilseed rape (Brassica napus)
Excerpt: as §1

[11] = system: wild buckwheat (Polygonum convolvulus)
Excerpt: as §1

[12] = system: Italian ryegrass (Lolium multiflorum)
Excerpt: as §1

[13] = system: bluegrass (annual bluegrass, Poa annua)
Excerpt: as §1

[14] = system: winter barley (Hordeum vulgare)
Excerpt: as §1

SMILES: C#CCn1cc(C(=O)c2ccccc2)c(-c2cc(Cl)cc(Cl)c2)n1 [Compound 39, [3-(3,5-dichlorophenyl)-1-(2-propyn-1-yl)-1H-pyrazol-4-yl]phenylmethanone]
- Plant response rating, Deadnettle ([1]; 16 g ai/ha): 0
- Plant response rating, Deadnettle ([1]; 31 g ai/ha): 0
- Plant response rating, Deadnettle ([1]; 62 g ai/ha): 0
- Plant response rating, Deadnettle ([1]; 125 g ai/ha): 0
- Plant response rating, Deadnettle ([1]; 250 g ai/ha): 0
- Plant response rating, Chickweed ([2]; 16 g ai/ha): 0
- Plant response rating, Chickweed ([2]; 31 g ai/ha): 0
- Plant response rating, Chickweed ([2]; 62 g ai/ha): 10
- Plant response rating, Chickweed ([2]; 125 g ai/ha): 30
- Plant response rating, Chickweed ([2]; 250 g ai/ha): 50
- Plant response rating, Blackgrass ([3]; 16 g ai/ha): 0
- Plant response rating, Blackgrass ([3]; 31 g ai/ha): 0
- Plant response rating, Blackgrass ([3]; 62 g ai/ha): 0
- Plant response rating, Blackgrass ([3]; 125 g ai/ha): 0
- Plant response rating, Blackgrass ([3]; 250 g ai/ha): 20
- Plant response rating, Mustard, Wild ([4]; 16 g ai/ha): 20
- Plant response rating, Mustard, Wild ([4]; 31 g ai/ha): 20
- Plant response rating, Mustard, Wild ([4]; 62 g ai/ha): 70
- Plant response rating, Mustard, Wild ([4]; 125 g ai/ha): 70
- Plant response rating, Mustard, Wild ([4]; 250 g ai/ha): 80
- Plant response rating, Barley, Spring ([5]; 16 g ai/ha): 0
- Plant response rating, Barley, Spring ([5]; 31 g ai/ha): 0
- Plant response rating, Barley, Spring ([5]; 62 g ai/ha): 0
- Plant response rating, Barley, Spring ([5]; 125 g ai/ha): 0
- Plant response rating, Barley, Spring ([5]; 250 g ai/ha): 0
- Plant response rating, Field Violet ([6]; 16 g ai/ha): 0
- Plant response rating, Field Violet ([6]; 31 g ai/ha): 0
- Plant response rating, Field Violet ([6]; 62 g ai/ha): 10
- Plant response rating, Field Violet ([6]; 125 g ai/ha): 10
- Plant response rating, Windgrass ([7]; 16 g ai/ha): 0
- Plant response rating, Windgrass ([7]; 31 g ai/ha): 0
- Plant response rating, Windgrass ([7]; 62 g ai/ha): 0
- Plant response rating, Windgrass ([7]; 125 g ai/ha): 0
- Plant response rating, Windgrass ([7]; 250 g ai/ha): 0
- Plant response rating, Wheat, Spring ([8]; 16 g ai/ha): 0
- Plant response rating, Wheat, Spring ([8]; 31 g ai/ha): 0
- Plant response rating, Wheat, Spring ([8]; 62 g ai/ha): 0
- Plant response rating, Wheat, Spring ([8]; 125 g ai/ha): 0
- Plant response rating, Wheat, Spring ([8]; 250 g ai/ha): 0
- Plant response rating, Canarygrass ([9]; 16 g ai/ha): 0
- Plant response rating, Canarygrass ([9]; 31 g ai/ha): 0
- Plant response rating, Canarygrass ([9]; 62 g ai/ha): 0
- Plant response rating, Canarygrass ([9]; 125 g ai/ha): 0
- Plant response rating, Canarygrass ([9]; 250 g ai/ha): 0
- Plant response rating, Oilseed Rape ([10]; 16 g ai/ha): 0
- Plant response rating, Oilseed Rape ([10]; 31 g ai/ha): 0
- Plant response rating, Oilseed Rape ([10]; 62 g ai/ha): 10
- Plant response rating, Oilseed Rape ([10]; 125 g ai/ha): 20
- Plant response rating, Oilseed Rape ([10]; 250 g ai/ha): 60
- Plant response rating, Buckwheat, Wild ([11]; 16 g ai/ha): 0
- Plant response rating, Buckwheat, Wild ([11]; 31 g ai/ha): 0
- Plant response rating, Buckwheat, Wild ([11]; 62 g ai/ha): 0
- Plant response rating, Buckwheat, Wild ([11]; 125 g ai/ha): 10
- Plant response rating, Buckwheat, Wild ([11]; 250 g ai/ha): 20
- Plant response rating, Ryegrass, Italian ([12]; 16 g ai/ha): 0
- Plant response rating, Ryegrass, Italian ([12]; 31 g ai/ha): 0
- Plant response rating, Ryegrass, Italian ([12]; 62 g ai/ha): 0
- Plant response rating, Ryegrass, Italian ([12]; 125 g ai/ha): 0
- Plant response rating, Ryegrass, Italian ([12]; 250 g ai/ha): 10
- Plant response rating, Bluegrass ([13]; 16 g ai/ha): 0
- Plant response rating, Bluegrass ([13]; 31 g ai/ha): 0
- Plant response rating, Bluegrass ([13]; 62 g ai/ha): 0
- Plant response rating, Bluegrass ([13]; 125 g ai/ha): 0
- Plant response rating, Bluegrass ([13]; 250 g ai/ha): 0
- Plant response rating, Barley, Winter ([14]; 16 g ai/ha): 0
- Plant response rating, Barley, Winter ([14]; 31 g ai/ha): 0
- Plant response rating, Barley, Winter ([14]; 62 g ai/ha): 0
- Plant response rating, Barley, Winter ([14]; 125 g ai/ha): 0
- Plant response rating, Barley, Winter ([14]; 250 g ai/ha): 0

SMILES: Clc1cc(Cl)cc(-c2n[nH]cc2C(=NN2CCCC2)c2ccccc2)c1 [Compound 30, N-[[3-(3,5-dichlorophenyl)-1H-pyrazol-4-yl]phenylmethylene]-1-pyrrolidinamine]
- Plant response rating, Deadnettle ([1]; 16 g ai/ha): 0
- Plant response rating, Deadnettle ([1]; 31 g ai/ha): 0
- Plant response rating, Deadnettle ([1]; 62 g ai/ha): 0
- Plant response rating, Deadnettle ([1]; 125 g ai/ha): 10
- Plant response rating, Deadnettle ([1]; 250 g ai/ha): 10
- Plant response rating, Chickweed ([2]; 16 g ai/ha): 0
- Plant response rating, Chickweed ([2]; 31 g ai/ha): 0
- Plant response rating, Chickweed ([2]; 62 g ai/ha): 10
- Plant response rating, Chickweed ([2]; 125 g ai/ha): 40
- Plant response rating, Chickweed ([2]; 250 g ai/ha): 75
- Plant response rating, Blackgrass ([3]; 16 g ai/ha): 0
- Plant response rating, Blackgrass ([3]; 31 g ai/ha): 0
- Plant response rating, Blackgrass ([3]; 62 g ai/ha): 0
- Plant response rating, Blackgrass ([3]; 125 g ai/ha): 10
- Plant response rating, Blackgrass ([3]; 250 g ai/ha): 10
- Plant response rating, Mustard, Wild ([4]; 16 g ai/ha): 60
- Plant response rating, Mustard, Wild ([4]; 31 g ai/ha): 60
- Plant response rating, Mustard, Wild ([4]; 62 g ai/ha): 60
- Plant response rating, Mustard, Wild ([4]; 125 g ai/ha): 70
- Plant response rating, Mustard, Wild ([4]; 250 g ai/ha): 85
- Plant response rating, Barley, Spring ([5]; 16 g ai/ha): 0
- Plant response rating, Barley, Spring ([5]; 31 g ai/ha): 0
- Plant response rating, Barley, Spring ([5]; 62 g ai/ha): 0
- Plant response rating, Barley, Spring ([5]; 125 g ai/ha): 0
- Plant response rating, Barley, Spring ([5]; 250 g ai/ha): 0
- Plant response rating, Field Violet ([6]; 16 g ai/ha): 0
- Plant response rating, Field Violet ([6]; 31 g ai/ha): 0
- Plant response rating, Field Violet ([6]; 62 g ai/ha): 10
- Plant response rating, Field Violet ([6]; 125 g ai/ha): 10
- Plant response rating, Field Violet ([6]; 250 g ai/ha): 15
- Plant response rating, Windgrass ([7]; 16 g ai/ha): 0
- Plant response rating, Windgrass ([7]; 31 g ai/ha): 0
- Plant response rating, Windgrass ([7]; 62 g ai/ha): 0
- Plant response rating, Windgrass ([7]; 125 g ai/ha): 0
- Plant response rating, Windgrass ([7]; 250 g ai/ha): 0
- Plant response rating, Wheat, Spring ([8]; 16 g ai/ha): 0
- Plant response rating, Wheat, Spring ([8]; 31 g ai/ha): 0
- Plant response rating, Wheat, Spring ([8]; 62 g ai/ha): 0
- Plant response rating, Wheat, Spring ([8]; 125 g ai/ha): 0
- Plant response rating, Wheat, Spring ([8]; 250 g ai/ha): 0
- Plant response rating, Canarygrass ([9]; 16 g ai/ha): 0
- Plant response rating, Canarygrass ([9]; 31 g ai/ha): 0
- Plant response rating, Canarygrass ([9]; 62 g ai/ha): 0
- Plant response rating, Canarygrass ([9]; 125 g ai/ha): 0
- Plant response rating, Canarygrass ([9]; 250 g ai/ha): 10
- Plant response rating, Oilseed Rape ([10]; 16 g ai/ha): 30
- Plant response rating, Oilseed Rape ([10]; 31 g ai/ha): 50
- Plant response rating, Oilseed Rape ([10]; 62 g ai/ha): 60
- Plant response rating, Oilseed Rape ([10]; 125 g ai/ha): 85
- Plant response rating, Oilseed Rape ([10]; 250 g ai/ha): 0
- Plant response rating, Buckwheat, Wild ([11]; 16 g ai/ha): 0
- Plant response rating, Buckwheat, Wild ([11]; 31 g ai/ha): 0
- Plant response rating, Buckwheat, Wild ([11]; 62 g ai/ha): 5
- Plant response rating, Buckwheat, Wild ([11]; 125 g ai/ha): 15
- Plant response rating, Buckwheat, Wild ([11]; 250 g ai/ha): 35
- Plant response rating, Ryegrass, Italian ([12]; 16 g ai/ha): 0
- Plant response rating, Ryegrass, Italian ([12]; 31 g ai/ha): 0
- Plant response rating, Ryegrass, Italian ([12]; 62 g ai/ha): 0
- Plant response rating, Ryegrass, Italian ([12]; 125 g ai/ha): 0
- Plant response rating, Ryegrass, Italian ([12]; 250 g ai/ha): 10
- Plant response rating, Bluegrass ([13]; 16 g ai/ha): 0
- Plant response rating, Bluegrass ([13]; 31 g ai/ha): 0
- Plant response rating, Bluegrass ([13]; 62 g ai/ha): 0
- Plant response rating, Bluegrass ([13]; 125 g ai/ha): 0
- Plant response rating, Bluegrass ([13]; 250 g ai/ha): 0
- Plant response rating, Barley, Winter ([14]; 16 g ai/ha): 0
- Plant response rating, Barley, Winter ([14]; 31 g ai/ha): 0
- Plant response rating, Barley, Winter ([14]; 62 g ai/ha): 0
- Plant response rating, Barley, Winter ([14]; 125 g ai/ha): 0
- Plant response rating, Barley, Winter ([14]; 250 g ai/ha): 0
